Results: US20220347171A1, “TREATMENT OF PRURIGO NODULARIS” (TREVI THERAPEUTICS, INC., priority 2016, published 2022)
Counter-ions that a name gives are not always drawn.

Tests used:
[1] = test system: prurigo nodularis patients; test: Phase 2 open label extension study (TR03ext, Example 3), titrated 30 mg QD to 180 mg BID, up to 50 weeks: Worst itch NRS; type: in vivo, human; conditions: for Worst Itch NRS Visit Mean (SD): Baseline 7.6 (1.6)
Source text: (§1) This clinical study was a Phase 2 Open Label Extension Study (clinical study TR03ext) of the randomized, double-blind, 3-parallel arm, placebo controlled dose ranging study described in Example 2. All those subjects who were randomized, and then completed Example 2 study, were eligible to participate in the Extension Study.
(§2) The primary endpoint was a description of the overall incidence and nature of Treatment-Emergent AEs (TEAES) during weeks 5-50 of the study. Exploratory efficacy endpoints included Change from Baseline patient reported outcome measures of Worst itch NRS, itchy VRS and ItchyQoL, by Treatment Period study visit and Baseline NRS score. There was also an assessment of any potential skin lesion changes over time using the metrics of the PAS.
(§3) Of the 63 patients that were randomized to the study of Example 2, 36 subjects who enrolled into Extension Study entered the Treatment Period of the study and were exposed to nalbuphine HCl ER tablet administration and are the basis of the study safety population analysis.
(§4) Patients in Extension Study were titrated over a dose range of 30 mg QD to 180 mg BID based on tolerability. The selected dose range was based on Example 2 study whereby patients were titrated from a 30 mg QD dose either to 30 mg BID, 60 mg BID, 90 mg BID, 120 mg BID or a 180 mg BID dose. The highest dose proposed was 180 mg BID (360 mg daily dose), and was well below the highest recommended daily treatment of 160 mg IV (equivalent to 960 mg oral) for the current marketed parenteral administered product.
(§5) The study duration for each patient was up to 52 weeks, with up to 50 weeks on study drug. The Extension Study consisted of a Treatment Period (that was followed by a Washout Safety Follow-up Period) and an Observation Period. Patients either entered directly into a drug Treatment Period (NRS >5) or a no-drug Observation Period (NRS ≤5) based on their reported NRS scores on the first Visit (Visit 1a). For up to 12 Extended Screening weeks, patients in the no-drug Observation Period could have also transitioned into the drug Treatment Period if their NRS increased to NRS >5. All patients entering the Treatment Period, whether immediately upon study entry or following a period of time in the Observation Period, were titrated to a dose ranging between 30 mg up to 180 mg BID, the highest dose tested in Example 2.

[2] = injectable formulations (IV or IM or SC); cited from earlier work
[3] = test system: prurigo nodularis patients; test: Example 2 trial: ItchyQoL total score; type: in vivo, human; conditions: for Mean (SD) decrease in ItchyQoL total score from baseline to Week 10: placebo −5.45 (10.91)
Experimental: This clinical study was a double-blind, placebo-controlled trial in which prurigo nodularis patients were randomized in a 1:1:1 ratio to nalbuphine ER tablets to a target dose of 90 mg twice daily (BID), nalbuphine HCl ER tablets 180 mg BID, or placebo tablets BID. Use of nonsedating rescue antihistamine medications (non-first generation H1-antihistamines [Simons F E. Advances in H1-antihistamines. N Engl J Med. 2004; 351(21):2203-17.]) were allowed in the study but their use was recorded. Cleansing emollients were allowed for hygiene purposes provided there were no active substances (such as menthol or urea) contained in the lotion. A placebo comparator was chosen because there are no approved treatments for prurigo nodularis in the United States or Europe or an established standard of care that could serve as an active control.
Quality of life-related secondary endpoints included change from Day 1 to the Evaluation Period in itching-related quality of life (using the Itchy QoL) and itching-related sleep disruption (using the MOS Sleep Scale-R). The Hospital Anxiety and Depression Score (HADS) used as a general measure of anxiety and depression.
Efficacy analysis of secondary continuous endpoints was performed using a mixed model repeated ANCOVA with the main effects of treatment and site, including the baseline value for each endpoint as the covariate. The model included time (i.e. Visit) as a factor variable and treatment*time (with placebo as the reference category) with an unstructured covariance structure for repeated measures. For other secondary efficacy endpoints, the Time factor corresponded to the scheduled study visits when the assessment was obtained (Visit 3, Visit 4, and Visit 5). Data from all post-baseline visits were used to fit the model.
In the first 2 weeks of treatment, patients were blindly force-titrated to their assigned target dose, with the patients in the active arms reaching a dose of 90 mg BID (NAL 90) and, for those in the high dose group, to 180 mg BID (NAL 180) in the second week. […]

[4] = test system: prurigo nodularis patients; test: TR03ext (Example 3), titrated 30 mg QD to 180 mg BID: ItchyQoL Total Score; type: in vivo, human; conditions: Baseline 75.2 (15.1)
Source text: as §1, §2, §3, §4, §5

In the case of `Oc1ccc2c3c1OC1[C@@H](O)CC[C@@]4(O)[C@@H](C2)N(CC2CCC2)CC[C@]314` (stereo partly drawn) [Nalbuphine, 17-(cyclobutylmethyl)-4,5α-epoxymorphinian-3, 6α, 14-triol, hydrochloride], the “Worst Itch NRS Mean (SD) Change from Baseline” value (shortened to “Worst Itch NRS Mean (SD) Change”) ([1]; Study Week 3, N=34) is reported as −2.0 (2.2), the “Worst Itch NRS Visit Mean (SD)” value ([1]; Study Week 3, N=34) is reported as 5.7 (2.4) and the “Worst Itch NRS Mean (SD) Change” value ([1]; Study Week 5, N=33) is reported as −2.5 (2.2). The “Worst Itch NRS Visit Mean (SD)” value ([1]; Study Week 5, N=33) was 5.2 (2.5), the “Worst Itch NRS Mean (SD) Change” value ([1]; Study Week 9, N=30) was −2.9 (2.2) and the “Worst Itch NRS Visit Mean (SD)” value ([1]; Study Week 9, N=30) was 4.6 (2.3). The “Worst Itch NRS Mean (SD) Change” value ([1]; Study Week 13, N=25) was −2.7 (1.8), the “Worst Itch NRS Visit Mean (SD)” value ([1]; Study Week 13, N=25) was 4.8 (2.2) and the “Worst Itch NRS Mean (SD) Change” value ([1]; Study Week 17, N=25) was −3.6 (2.6). The “Worst Itch NRS Visit Mean (SD)” value ([1]; Study Week 17, N=25) was 3.8 (2.4), the “Worst Itch NRS Mean (SD) Change” value ([1]; Study Week 21, N=22) was −3.3 (2.4) and the “Worst Itch NRS Visit Mean (SD)” value ([1]; Study Week 21, N=22) was 4.1 (2.4). The “Worst Itch NRS Mean (SD) Change” value ([1]; Study Week 26, N=21) was −3.9 (2.2), the “Worst Itch NRS Visit Mean (SD)” value ([1]; Study Week 26, N=21) was 3.4 (1.6) and the “Worst Itch NRS Mean (SD) Change” value ([1]; Study Week 30, N=20) was −4.2 (2.3). The “Worst Itch NRS Visit Mean (SD)” value ([1]; Study Week 30, N=20) was 3.2 (1.6), the “Worst Itch NRS Mean (SD) Change” value ([1]; Study Week 34, N=18) was −3.9 (2.1) and the “Worst Itch NRS Visit Mean (SD)” value ([1]; Study Week 34, N=18) was 3.3 (1.6). The “Worst Itch NRS Mean (SD) Change” value ([1]; Study Week 38, N=17) was −3.9 (1.7), the “Worst Itch NRS Visit Mean (SD)” value ([1]; Study Week 38, N=17) was 3.2 (1.6) and the “Worst Itch NRS Mean (SD) Change” value ([1]; Study Week 42, N=17) was −3.9 (1.4). For the same compound, the “Worst Itch NRS Visit Mean (SD)” value ([1]; Study Week 42, N=17) was 3.2 (1.4), the “Worst Itch NRS Mean (SD) Change” value ([1]; Study Week 46, N=17) was −3.9 (1.3) and the “Worst Itch NRS Visit Mean (SD)” value ([1]; Study Week 46, N=17) was 3.2 (1.5). The “Worst Itch NRS Mean (SD) Change” value ([1]; Study Week 50, N=15) was −4.3 (1.3), the “Worst Itch NRS Visit Mean (SD)” value ([1]; Study Week 50, N=15) was 2.9 (1.7) and the half-life [2] was 2 to 3 h. For the same compound, the “Mean (SD) decrease in ItchyQoL total score from baseline to Week 10” value ([3]; 90 mg BID) was −7.79 (7.83), the “ItchyQoL total score, LS mean difference versus placebo (mixed model repeated measures)” value ([3]; 180 mg BID, Week 10, p=0.022) was −8.75 and the “Mean (SD) decrease in ItchyQoL total score from baseline to Week 10” value ([3]; 180 mg BID) was −13.83 (13.45). The “ItchyQoL Total Score Visit Mean (SD)” value ([4]; Study Week 3, N=33) was 70.3 (18.7), the “ItchyQoL Total Score Visit Mean (SD)” value ([4]; Study Week 5, N=31) was 67.8 (19.0) and the “ItchyQoL Total Score Visit Mean (SD)” value ([4]; Study Week 9, N=28) was 65.8 (18.5). For the same compound, the “ItchyQoL Total Score Visit Mean (SD)” value ([4]; Study Week 13, N=24) was 65.7 (17.4), the “ItchyQoL Total Score Visit Mean (SD)” value ([4]; Study Week 17, N=24) was 63.5 (19.4) and the “ItchyQoL Total Score Visit Mean (SD)” value ([4]; Study Week 21, N=21) was 62.6 (18.0). For the same compound, the “ItchyQoL Total Score Visit Mean (SD)” value ([4]; Study Week 26, N=20) was 59.4 (16.8), the “ItchyQoL Total Score Visit Mean (SD)” value ([4]; Study Week 30, N=19) was 60.8 (18.9) and the “ItchyQoL Total Score Visit Mean (SD)” value ([4]; Study Week 34, N=17) was 62.2 (15.2). The “ItchyQoL Total Score Visit Mean (SD)” value ([4]; Study Week 38, N=16) was 61.9 (16.1), the “ItchyQoL Total Score Visit Mean (SD)” value ([4]; Study Week 42, N=16) was 63.4 (15.3) and the “ItchyQoL Total Score Visit Mean (SD)” value ([4]; Study Week 46, N=16) was 62.4 (14.1). The “ItchyQoL Total Score Visit Mean (SD)” value ([4]; Study Week 50, N=14) was 63.3 (15.9).
